Reference: patent US7186825B2, “Conformationally restricted polyamine analogs as disease therapies” (Cellgate, Inc., priority 1999, dated 2007)
Read-outs that look alike come from different tables or passages of the source.

Key:
Assay type in all cases: cell-based
[1] = test system: human lung cancer cells A549; experiment: MTT assay, survival/growth of cultured human lung cancer cells A549; conditions: for EC50: figure legends, survival of cultured A549 cells, MTT, six days after drug treatment, read-out: ED50 (the source's name); for IC50: read-out: concentration needed for 50% growth inhibition (ID50)
Experimental: (§1) As shown in Table 3 and FIGS. 1–32, several novel conformationally restricted polyamine analogs were tested for anti-proliferative properties against cancer cells.
(§2) Human breast cancer cell line MCF7 was grown in Richter's Improved Modified Eagle's Medium supplemented with 10% fetal bovine serum (FBS) and 2.2 g/L sodium bicarbonate. Human brain tumor cell line U251 MG-NCI was grown in Dulbecco's Modified Eagle's Medium supplemented with 10% FBS. Human lung cancer cell line A549 was grown in Ham's F-12K medium (Cellgro, Mediatech, Inc., VA), supplemented with 10% FBS and 2 mM L-glutamine. Human colon cancer cell line HT29 was cultured in McCoy's 5A medium (Gibco, BRL, Gaithersburg, Md.) supplemented with 10% FBS. Human prostate cancer cell lines PC-3, LNCAP and DuPro were grown in RPMI 1640 Medium (Cellgro, Mediatech, Inc., VA) supplemented with 10% FBS. Another human prostate cancer cell line DU145 was grown in Dulbecco's Modified Eagle's Medium (Gibco, BRL, Gaithersburg, Md.) supplemented with 5% FBS. The A549, MCF7, PC3, LNCAP and DuPro cell lines were cultured in 100 units/mL penicillin and 100 μg/mL streptomycin. HT29 and U251MG cell lines were grown in 50 μg/mL gentamycin (Gibco, BRL, Gaithersburg, Md.). DU145 cell line was maintained in 1% antibitic-antimycotic solution (Sigma, St. Louis, Mo.). The cell cultures were maintained at 37° C. in 5% CO2/95% humidified air. DuPro cells were obtained from M. Eileen Dolan, University of Chicago. All other cells are available from the American Type Culture Collection, Rockville, Md.
(§3) A conventional MTT assay was used to evaluate percent cell survival. Exponentially growing monolayer cells were plated in 96-well plates at a density of 500 cells per well and allowed to grow for 24 hours. Serial dilutions of the drugs were added to the wells. Six days after drug treatment, 25 μl of MTT solution (5 mg/ml) was added to each well and incubated for 4 hours at 37° C. Then 100 μl of lysis buffer (20% sodium dodecyl sulfate, 50% DMF, and 0.8% acetic acid, pH 4.7) was added to each well and incubated for an additional 22 hours. A microplate reader (“EMAX”-brand, Molecular Devices, Sunnyvale, Calif.) set at 570 nm was used to determine the optical density of the cultures. Results are expressed as a ratio of the optical density in drug-treated wells to the optical density in wells treated with vehicle only.

[2] = test system: human prostate cancer cells PC3; experiment: MTT assay, survival/growth of cultured human prostate cancer cells PC3; conditions: for EC50: figure legends, survival of cultured PC3 cells, MTT, six days after drug treatment, read-out: ED50 (the source's name)
Experimental: as §2, §3
(§4) Using the protocols of Example 2, the porphyrin-polyamine conjugates were tested for activity in vitro in various cancer cell lines.

[3] = test system: human brain tumor cells U251 MG NCI; experiment: MTT assay, survival/growth of cultured human brain tumor cells U251 MG NCI; conditions: for EC50: figure legends, survival of cultured U251 MG NCI cells, MTT, six days after drug treatment, read-out: ED50 (the source's name); for IC50: Table 3, U251MG
Experimental: as §2, §3

[4] = test system: human prostate cancer cells DUPRO; experiment: MTT assay, survival/growth of cultured human prostate cancer cells DUPRO
Experimental: as §2, §3, §4

[5] = test system: human breast cancer cells MCF7; experiment: MTT assay, survival/growth of cultured human breast cancer cells MCF7; conditions: for EC50: figure legends, survival of cultured MCF7 cells, MTT, six days after drug treatment, read-out: ED50 (the source's name); for IC50: read-out: concentration needed for 50% growth inhibition (ID50), Table 3, MCF7
Experimental: as §1, §2, §3

[6] = test system: human prostate cancer cells DU145; experiment: MTT assay, survival/growth of cultured human prostate cancer cells DU145; conditions: for EC50: figure legends, survival of cultured DU145 cells, MTT, six days after drug treatment, read-out: ED50 (the source's name); for IC50: DU-145
Experimental: as §2, §3, §4

[7] = test system: human colon cancer cells HT29; experiment: MTT assay, survival/growth of cultured human colon cancer cells HT29; conditions: for EC50: figure legends, survival of cultured HT29 cells, MTT, six days after drug treatment, read-out: ED50 (the source's name); for IC50: read-out: concentration needed for 50% growth inhibition (ID50), Table 3, HT-29
Experimental: as §1, §2, §3

[8] = test system: human prostate cancer cells LNCAP; experiment: MTT assay, survival/growth of cultured human prostate cancer cells LNCAP; conditions: Homo sapiens, 144 h, figure legends, survival of cultured LNCAP cells, six days after drug treatment, read-out: ED50 (the source's name)
Experimental: as §2, §3, §4

[9] = Homo sapiens, 144 h, figure legends, survival of cultured DUPRO cells, MTT, six days after drug treatment, read-out: ED50 (the source's name)
[10] = Homo sapiens, read-out: concentration needed for 50% growth inhibition (ID50), Table 3, PC-3
[11] = Homo sapiens, U-251, read-out: concentration needed for 50% growth inhibition (ID50)
[12] = Homo sapiens, read-out: concentration needed for 50% growth inhibition (ID50), Table 3
[13] = Homo sapiens, read-out: concentration needed for 50% growth inhibition (ID50), Table 3, DUPRO

| SMILES | EC50 ([2]; Homo sapiens, PC-3, 144 h) | EC50 ([6]; Homo sapiens, DU-145, 144 h) | IC50 ([1]; Homo sapiens, Table 3, A549) | IC50 [2, 10] | IC50 ([5]; Homo sapiens) | IC50 [6, 12] | IC50 ([7]; Homo sapiens) | further results |
| --- | --- | --- | --- | --- | --- | --- | --- | --- |
| CCNCCCNCCCNCCCNCC [BE-333, N1,N11-diethylnorspermine, reference compound] |  |  |  |  |  |  |  | EC50 [1]: 0.3 µM; EC50 [2]: 0.34 µM; EC50 [3]: 0.23 µM; EC50 ([4]; figure legends, survival of cultured DUPRO cells, MTT, six days after drug treatment, read-out: ED50 (the source's name)): 0.9 µM; EC50 [5]: 3.7 µM; EC50 [6]: 0.12 µM; EC50 [7]: 0.3 µM |
| CCNCCCCNCCCCNCCCCNCCCC1=C(C)c2cc3[nH]c(cc4nc(cc5[nH]c(cc1n2)c(CCCNCCCCNCCCCNCCCCNCC)c5C)C(CC)=C4C)c(CC)c3C [SL-11202] |  |  |  |  |  |  |  | IC50 ([2]; Homo sapiens, Table 4, PC3, growth by MTT assay, read-out: IC50 (μM) in different cell lines): 1.15 µM; IC50 ([4]; Homo sapiens, Table 4, DUPRO, growth by MTT assay, read-out: IC50 (μM) in different cell lines): 1.3 µM; IC50 ([6]; Homo sapiens, Table 4, DU145, growth by MTT assay, read-out: IC50 (μM) in different cell lines): 4.6 µM |
| CCNCCCCNCCCCNCCCCNCCCCNCCO [SL-11141] | > 31.2 µM | 0.13 µM |  |  |  |  |  | EC50 [4, 9]: 0.71 µM; EC50 [8]: 0.07 µM |
| CNCCCNCC#CCNCCCNC [SL-11092] |  |  | > 31.2 µM | > 31.2 µM | > 31.2 µM | 1.7 µM | > 31.2 µM | IC50 [3, 11]: > 31.2 µM |
| CCNC1CCCC1CNCCCNCC1CCCC1NCC (stereo not shown) [SL-11124] | > 31.2 µM | > 31.2 µM | > 31.2 µM | > 31.2 µM | > 31.2 µM | > 31.2 µM | > 31.2 µM | EC50 ([1]; Homo sapiens, 144 h): > 31.2 µM; EC50 [4, 9]: > 31.2 µM; IC50 [4, 13]: > 31.2 µM; EC50 ([5]; Homo sapiens, 144 h): > 31.2 µM; EC50 ([7]; Homo sapiens, HT-29, 144 h): > 31.2 µM |
| CCNC/C=C\CNC/C=C\CNC/C=C\CNCCCCNCC [SL-11130] | > 31.2 µM | 0.43 µM |  | > 31.2 µM |  | 0.43 µM |  | IC50 [4, 9]: > 31.2 µM |
| CCNCCCNCCCNCC1CCCC1NCC (stereo not shown) [SL-11132] | > 31.2 µM | 0.015 µM |  |  |  |  |  | EC50 [4, 9]: > 31.2 µM |
| CCNCCCCNC/C=C\CNC/C=C\CNCCCCNCC [SL-11123] | > 31.2 µM | 0.51 µM | > 31.2 µM | > 31.2 µM | > 31.2 µM | 0.51 µM | 10.4 µM | EC50 ([1]; Homo sapiens, 144 h): > 31.2 µM; IC50 [4, 9]: > 31.2 µM; IC50 [4, 13]: > 31.2 µM; EC50 ([5]; Homo sapiens, 144 h): > 31.2 µM |
| CNCCCNC[C@H]1CC[C@H]1CNCCCNC [SL-11090] |  |  | > 31.2 µM | > 31.2 µM | > 31.2 µM | > 31.2 µM | > 31.2 µM | IC50 [3, 11]: > 31.2 µM |
| CCNCCCNCC#CCNCCCNCC [SL-11091] | > 31.2 µM | 4.33 µM | > 31.2 µM | > 31.2 µM | > 31.2 µM | 1.33 µM | > 31.2 µM | EC50 ([1]; Homo sapiens, 144 h): > 31.2 µM; EC50 ([3]; Homo sapiens, U-251, 144 h): > 31.2 µM; IC50 [3, 11]: > 31.2 µM; EC50 ([5]; Homo sapiens, 144 h): > 31.2 µM; EC50 ([7]; Homo sapiens, HT-29, 144 h): > 31.2 µM |
| CCNCCCNCc1ccccc1CNCCCNCC [SL-11094] |  |  |  |  |  |  |  | concentration needed for 50% growth inhibition (ID50) ([1]; Table 3, A549): >31.25 µM; IC50 ([2]; read-out: concentration needed for 50% growth inhibition (ID50), Table 3, PC-3): > 31.2 µM; IC50 ([3]; read-out: concentration needed for 50% growth inhibition (ID50)): > 31.2 µM; IC50 [5]: > 31.2 µM; EC50 [6]: 15.4 µM; IC50 ([6]; read-out: concentration needed for 50% growth inhibition (ID50), Table 3): 12.6 µM; IC50 [7]: 28.8 µM |
